Measured values taken from ChEMBL document CHEMBL1133965, “Total synthesis of Calebin-A, preparation of its analogues, and their neuronal cell protectivity against beta-amyloid insult” (2001).
≈ marks a conversion by molar mass, not a printed value.

How the values were obtained:
[1] = tested on: PC-12; assay: Evaluated for neuronal cell protectivity against beta-amyloid (25,35) insult towards PC12 rat pheochromocytoma cell; No protection; format: functional
[2] = tested on: IMR-32; assay: (§1) Evaluated for neuronal cell protectivity against beta-amyloid (25,35) insult towards IMR-32 human neuroblastoma cell; No protection; format: functional
[3] = tested on: IMR-32; assay: as §1; format: functional, cell-based
[4] = tested on: PC-12; assay: Evaluated for neuronal cell protectivity against beta-amyloid (25,35) insult towards PC12 rat pheochromocytoma cell
[5] = tested on: IMR-32; assay: Evaluated for neuronal cell protectivity against beta-amyloid (25,35) insult towards IMR-32 human neuroblastoma cell; format: functional; settings: read-out: ED50 (the source's name)
[6] = tested on: PC-12; assay: Evaluated for neuronal cell protectivity against beta-amyloid (25,35) insult towards PC12 rat pheochromocytoma cell; format: functional; settings: read-out: ED50 (the source's name)

Row | Compound | ED50 [1] | ED50 [2] | also measured
1 | COc1cccc(/C=C/C(=O)OCC(=O)/C=C/c2ccc(O)c(OC)c2)c1 | No protection | No protection | –
2 | COc1cc(/C=C/C(=O)COC(=O)/C=C/c2ccc(OC(C)=O)c(OC(C)=O)c2)ccc1O | No protection | – | ED50 [3]: No protection
3 | VITAMIN E | No protection | No protection | –
4 | COc1cc(/C=C/C(=O)COC(=O)/C=C/c2cccc(OC(C)=O)c2)ccc1O | No protection | No protection | –
5 | COc1cc(/C=C/C(=O)COC(=O)/C=C/c2ccc(O)cc2)ccc1O | – | – | ED50 [4]: 0.7 µg/mL (≈ 1.98 µM); EC50 ([2]; read-out: ED50 (the source's name)): 1.2 µg/mL (≈ 3.39 µM)
6 | COc1cc(/C=C/C(=O)COC(=O)/C=C/c2ccc(Br)cc2)ccc1O | No protection | No protection | –
7 | COc1cc(/C=C/C(=O)COC(=O)/C=C/c2ccc3c(c2)OCO3)ccc1O | No protection | No protection | –
8 | COc1cc(/C=C/C(=O)COC(=O)/C=C/c2ccc(C)cc2)ccc1O | No protection | No protection | –
9 | COc1cc(/C=C/C(=O)COC(=O)/C=C/c2ccccc2)ccc1O | No protection | No protection | –
10 | COc1cc(/C=C/C(=O)COC(=O)/C=C/c2cccc(O)c2)ccc1O | – | – | EC50 [5]: 15.8 µg/mL (≈ 44.6 µM); EC50 [6]: 13.2 µg/mL (≈ 37.3 µM)
11 | COc1cc(/C=C/C(=O)CC(=O)/C=C/c2ccc(O)c(OC)c2)ccc1O [CURCUMIN] | – | – | EC50 [5]: 7.4 µg/mL (≈ 20.1 µM); EC50 [6]: 7.1 µg/mL (≈ 19.3 µM)
12 | COc1cc(/C=C/C(=O)COC(=O)/C=C/c2ccc(O)c(O)c2)ccc1O | – | – | EC50 [5]: 7.9 µg/mL (≈ 21.3 µM); EC50 [6]: 7.3 µg/mL (≈ 19.7 µM)
13 | COc1cc(/C=C/C(=O)COC(=O)/C=C/c2ccc(Cl)cc2)ccc1O | No protection | No protection | –
14 | COc1cc(/C=C/C(=O)COC(=O)/C=C/c2ccc(O)c(OC)c2)ccc1O [CALEBI A] | – | – | EC50 [5]: 1.4 µg/mL (≈ 3.64 µM); EC50 [6]: 1 µg/mL (≈ 2.6 µM)
15 | COc1ccc(/C=C/C(=O)OCC(=O)/C=C/c2ccc(O)c(OC)c2)cc1 | No protection | No protection | –
16 | COc1cc(/C=C/C(=O)COC(=O)/C=C/c2ccc(OC(C)=O)cc2)ccc1O | No protection | No protection | –
